Reference: patent publication US10562891B2, “Quinazolinones as PARP14 inhibitors” (Ribon Therapeutics Inc., priority 2017, dated 2020)
Counter-ions that a name gives are not always drawn.

The molecules below were run against catalytic domain of human PARP14 (Homo sapiens (Human), UniProt Q460N5) (assay: Enzymatic assay for inhibition of PARP14 (DELFIA, auto-modification with biotin-NAD)). Details: auto-modification of PARP14 by biotin-NAD, 50 nM PARP14, 3 μM biotin-NAD.
catalytic domain of human PARP14, sequence (Q460N5 1611-1801): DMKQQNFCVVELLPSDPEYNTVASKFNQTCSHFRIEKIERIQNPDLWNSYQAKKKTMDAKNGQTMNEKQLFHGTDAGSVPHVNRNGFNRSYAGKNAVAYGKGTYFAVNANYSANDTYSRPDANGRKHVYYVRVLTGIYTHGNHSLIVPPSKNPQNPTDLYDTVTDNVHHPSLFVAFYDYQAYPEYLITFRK
Type: biochemical
Summary of the method: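 DELFIA auto-modification read-out: europium-streptavidin bound to biotin-NAD incorporated onto nickel-captured His-TEV PARP14 catalytic domain. Compound preincubated 30 min, then 50 nM enzyme with 3 μM biotin-NAD reacted 3 h, all at 25 °C, pH 8, then NAD quench. Percent inhibition normalized to rucaparib/DMSO wells, fitted (4- or 3-parameter) for IC50.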
With O=c1[nH]c(CSC2CCOCC2)nc2cc(N[C@H]3CC[C@H](N4CCOCC4)CC3)cc(F)c12 [Example 233, 5-Fluoro-7-((trans-4-morpholinocyclohexyl)amino)-2-(((tetrahydro-2H-pyran-4-yl)thio)methyl)quinazolin-4(3H)-one Trifluoroacetate] the IC50 was under 1000 nM. Molecule O=c1[nH]c(CSC2CCOCC2)nc2cc(N[C@H]3CC[C@@H](N4CCOCC4)CC3)cc(F)c12 [Example 234, 5-Fluoro-7-((cis-4-morpholinocyclohexyl)amino)-2-(((tetrahydro-2H-pyran-4-yl)thio)methyl)quinazolin-4(3H)-one Trifluoroacetate] has an IC50 of 1000 to 10000 nM. In the case of O=c1[nH]c(CSC2CCOCC2)nc2cc(OCC3CCOCC3)cc(F)c12 [Example 236, 5-Fluoro-7-((tetrahydro-2H-pyran-4-yl)methoxy)-2-(((tetrahydro-2H-pyran-4-yl)thio)methyl)quinazolin-4(3H)-one], the IC50 is reported as under 1000 nM. Cc1cc(OCC2CCC2)cc2nc(CSC3CCOCC3)[nH]c(=O)c12 [Example 237, 7-(Cyclobutylmethoxy)-5-methyl-2-(((tetrahydro-2H-pyran-4-yl)thio)methyl)quinazolin-4(3H)-one] showed an IC50 of under 1000 nM. O=c1[nH]c(CSC2CCOCC2)nc2cc(OCC3CCOC3)cc(F)c12 (centres unmarked) [Example 238, 5-Fluoro-2-(((tetrahydro-2H-pyran-4-yl)thio)methyl)-7-((tetrahydrofuran-3-yl)methoxy)quinazolin-4(3H)-one] showed an IC50 of under 1000 nM. For O=c1[nH]c(CSC2CCOCC2)nc2cc(OC[C@@H]3CCOC3)cc(F)c12 [Example 239a, (R)-5-fluoro-2-(((tetrahydro-2H-pyran-4-yl)thio)methyl)-7-((tetrahydrofuran-3-yl)methoxy)quinazolin-4(3H)-one], the IC50 was under 1000 nM. Molecule O=c1[nH]c(CSC2CCOCC2)nc2cc(OC[C@H]3CCOC3)cc(F)c12 [Example 239b, (S)-5-fluoro-2-(((tetrahydro-2H-pyran-4-yl)thio)methyl)-7-((tetrahydrofuran-3-yl)methoxy)quinazolin-4(3H)-one] has an IC50 of under 1000 nM. NC[C@]1(F)CC[C@@H](SCc2nc3cc(NC4CCCC4)cc(F)c3c(=O)[nH]2)CC1 [Example 243, 2-(((trans-4-(Aminomethyl)-4-fluorocyclohexyl)thio)methyl)-7-(cyclopentylamino)-5-fluoroquinazolin-4(3H)-one Trifluoroacetate] was tested, and the IC50 was under 1000 nM. For NC[C@]1(F)CC[C@H](SCc2nc3cc(NC4CCCC4)cc(F)c3c(=O)[nH]2)CC1 [Example 244, 2-(((cis-4-(Aminomethyl)-4-fluorocyclohexyl)thio)methyl)-7-(cyclopentylamino)-5-fluoroquinazolin-4(3H)-one Trifluoroacetate], the IC50 was under 1000 nM. With O=c1[nH]c(CSC2CCOCC2)nc2cc(NC3CCOCC3)c(F)cc12 [Example 245, 6-Fluoro-7-((tetrahydro-2H-pyran-4-yl)amino)-2-(((tetrahydro-2H-pyran-4-yl)thio)methyl)quinazolin-4(3H)-one] the IC50 was 1000 to 10000 nM. Work on CN1CCC(SCc2nc3cc(NC4CCCC4)cc(F)c3c(=O)[nH]2)CC1 [Example 246, 7-(Cyclopentylamino)-5-fluoro-2-(((1-methylpiperidin-4-yl)thio)methyl)quinazolin-4(3H)-one] yielded an IC50 of under 1000 nM. In the case of O=c1[nH]c(CSC2CCOCC2)nc2cc(NC3CCCCC3)cc(F)c12 [Example 247, 7-(Cyclohexylamino)-5-fluoro-2-(((tetrahydro-2H-pyran-4-yl)thio)methyl)quinazolin-4(3H)-one], the IC50 is reported as under 1000 nM. O=c1[nH]c(CSC2CCNCC2)nc2cc(NC3CCCCC3)cc(F)c12 [Example 248, 7-(Cyclohexylamino)-5-fluoro-2-((piperidin-4-ylthio)methyl)quinazolin-4(3H)-one] was tested, and the IC50 was under 1000 nM. Work on O=c1[nH]c(CS[C@H]2CC[C@H](O)CC2)nc2cc(NC3CCCCC3)cc(F)c12 [Example 249, 7-(Cyclohexylamino)-5-fluoro-2-((((1r,4r)-4-hydroxycyclohexyl)thio)methyl)quinazolin-4(3H)-one] yielded an IC50 of under 1000 nM.
